Values after ≈ are worked out from the molar mass of the structure shown. One block for each compound: values may come before it.
Key:
Assay in all cases: ≥ marks a high value that may be exact or a test limit, other limits are often not marked, values filed in µg/mL are converted to µM
[1] = system: Escherichia coli ATCC 25922
[2] = system: Candida albicans NCTC 3179
[3] = system: Staphylococcus aureus NCTC 6571
[4] = system: Listeria monocytogenes ATCC 15313
[5] = system: Pseudomonas aeruginosa ATCC 10145
[6] = system: Bacillus subtilis ATCC 11774
[7] = system: Escherichia coli ATCC 12014
[8] = system: Enterococcus faecalis FA1
[9] = system: Salmonella enterica subsp. enterica serovar Typhimurium ATCC BAA-215
[10] = system: Porphyromonas gingivalis ATCC 33277
[11] = system: Staphylococcus aureus ATCC 25923
[12] = system: Escherichia coli C25
[13] = system: Escherichia coli CCARM 1238
[14] = system: Salmonella typhimurium CCARM 8007
[15] = system: Acinetobacter baumannii KCTC 2508
[16] = system: Escherichia coli CCARM 1229
[17] = system: Acinetobacter baumannii CCARM 12036
[18] = system: Acinetobacter baumannii CCARM 12035
[19] = system: Escherichia coli KCTC 1682
[20] = system: Staphylococcus aureus KCTC 1621
[21] = system: Pseudomonas aeruginosa CCARM 2095
[22] = system: Bacillus subtilis KCTC 3028
[23] = system: Pseudomonas aeruginosa KCTC 1637
[24] = system: Staphylococcus aureus CCARM 3089
[25] = system: Staphylococcus aureus CCARM 3108
[26] = system: Pseudomonas aeruginosa CCARM 2002
[27] = system: Salmonella typhimurium KCTC 1926
[28] = system: Staphylococcus epidermidis KCTC 1917
[29] = system: Salmonella typhimurium CCARM 8003
[30] = system: Staphylococcus aureus CCARM 3126
[31] = system: Leishmania major MHOM/IL/67/JERICHO-II
[32] = system: Escherichia coli HB101
[33] = system: Staphylococcus aureus Cowan 1
[34] = system: Streptococcus mutans UA159
[35] = system: Streptococcus sanguinis ATCC 10556
[36] = system: Streptococcus sobrinus ATCC 6715

Compound: CC[C@H](C)[C@H](NC(=O)[C@H](CCCN=C(N)N)NC(=O)[C@H](CCC(N)=O)NC(=O)[C@@H](NC(=O)[C@@H](NC(=O)[C@H](CCCN=C(N)N)NC(=O)[C@H](CCCCN)NC(=O)[C@H](Cc1ccccc1)NC(=O)[C@H](CCC(=O)O)NC(=O)[C@@H](N)CCCCN)[C@@H](C)CC)C(C)C)C(=O)N[C@@H](CCCCN)C(=O)N[C@@H](CC(=O)O)C(=O)N[C@@H](Cc1ccccc1)C(=O)N[C@@H](CC(C)C)C(=O)N[C@@H](CCCN=C(N)N)C(=O)N[C@@H](CC(N)=O)C(=O)N[C@@H](CC(C)C)C(=O)N[C@H](C(=O)O)C(C)C [KEFKRIVQRIKDFLRNLV]
MIC [1]: 0.912 µM (≈ 2.1 µg/mL)
MIC [2]: ≥ 36.5 µM
MIC [3]: 3.13 µM (≈ 7.2 µg/mL)

Compound: CC[C@H](C)[C@H](NC(=O)CNC(=O)[C@H](CCCN=C(N)N)NC(=O)[C@H](Cc1ccc(O)cc1)NC(=O)[C@@H](NC(=O)[C@H](CCCN=C(N)N)NC(=O)[C@H](Cc1ccccc1)NC(=O)[C@H](Cc1c[nH]c2ccccc12)NC(=O)[C@@H](N)CCCCN)C(C)C)C(=O)N[C@@H](Cc1ccc(O)cc1)C(=O)N[C@@H](CCCN=C(N)N)C(=O)N[C@@H](CCCN=C(N)N)C(=O)N[C@@H](CCCN=C(N)N)C(N)=O [KWFRVYRGIYRRR]
MIC [4]: 6.73 µM (≈ 12.5 µg/mL)
MIC [5]: 6.73 µM (≈ 12.5 µg/mL)
MIC [6]: ≥ 108 µM
MIC [7]: 3.37 µM (≈ 6.25 µg/mL)
MIC [8]: ≥ 53.9 µM
MIC [9]: 6.73 µM (≈ 12.5 µg/mL)
MIC [10]: 1.68 µM (≈ 3.12 µg/mL)
MIC [11]: 14 µM (≈ 26 µg/mL)
MIC [12]: 7.1 µM (≈ 13.2 µg/mL)

Compound: CC[C@H](C)[C@H](NC(=O)[C@H](C)NC(=O)[C@H](CCC(=O)O)NC(=O)[C@H](Cc1cnc[nH]1)NC(=O)[C@@H](NC(=O)[C@@H]1CCCN1C(=O)[C@H](CCC(N)=O)NC(=O)[C@H](Cc1ccccc1)NC(=O)[C@@H](NC(=O)[C@H](CCCCN)NC(=O)[C@H](CCCCN)NC(=O)[C@H](CC(C)C)NC(=O)[C@H](C)NC(=O)[C@H](CC(N)=O)NC(=O)[C@H](CC(C)C)NC(=O)CN)C(C)C)[C@@H](C)CC)C(=O)N[C@@H](CCCCN)C(=O)N[C@@H](CC(C)C)C(=O)N[C@H](C(=O)N[C@@H](CC(N)=O)C(=O)N[C@@H](CC(N)=O)C(=O)N[C@@H](Cc1cnc[nH]1)C(=O)N[C@H](C(=O)N[C@@H](CCC(N)=O)C(=O)O)C(C)C)[C@@H](C)CC [GLNALKKVFQPIHEAIKLINNHVQ]
MIC [13]: 8 µM (≈ 21.8 µg/mL)
MIC [14]: 8 µM (≈ 21.8 µg/mL)
MIC [15]: 8 µM (≈ 21.8 µg/mL)
MIC [16]: 8 µM (≈ 21.8 µg/mL)
MIC [17]: 8 µM (≈ 21.8 µg/mL)
MIC [18]: 8 µM (≈ 21.8 µg/mL)
MIC [19]: 8 µM (≈ 21.8 µg/mL)
MIC [20]: ≥ 32 µM
MIC [21]: 16 µM (≈ 43.6 µg/mL)
MIC [22]: ≥ 32 µM
MIC [23]: 16 µM (≈ 43.6 µg/mL)
MIC [24]: ≥ 32 µM
MIC [25]: ≥ 32 µM
MIC [26]: 16 µM (≈ 43.6 µg/mL)
MIC [27]: 8 µM (≈ 21.8 µg/mL)
MIC [28]: ≥ 32 µM
MIC [29]: 16 µM (≈ 43.6 µg/mL)
MIC [30]: ≥ 32 µM

Further lines, results first:

MIC [31]: ≥ 48.8 µM
MIC [32]: ≥ 48.8 µM
MIC [33]: ≥ 48.8 µM
Compound: CSCC[C@H](NC(=O)[C@@H](NC(=O)CNC(=O)[C@H](CC(C)C)NC(=O)[C@H](CCCCN)NC(=O)[C@H](CCCCN)NC(=O)[C@H](CC(C)C)NC(=O)[C@H](CCSC)NC(=O)[C@@H](NC(=O)[C@H](CCCCN)NC(=O)[C@H](Cc1c[nH]c2ccccc12)NC(=O)[C@H](CC(C)C)NC(=O)[C@H](C)N)[C@@H](C)O)[C@@H](C)O)C(=O)N[C@@H](C)C(N)=O [ALWKTMLKKLGTMA]

MIC [34]: 18.8 µM (≈ 32 µg/mL)
MIC [35]: 18.8 µM (≈ 32 µg/mL)
MIC [36]: 18.8 µM (≈ 32 µg/mL)
Compound: CC(C)[C@H](NC(=O)[C@H](CCCCN)NC(=O)[C@H](Cc1ccccc1)NC(=O)[C@H](Cc1ccccc1)NC(=O)[C@H](CCCCN)NC(=O)[C@H](CCCCN)NC(=O)[C@H](Cc1ccccc1)NC(=O)[C@H](Cc1ccccc1)NC(=O)[C@H](CCCCN)NC(=O)CNC(=O)[C@H](Cc1c[nH]c2ccccc12)NC(=O)CN)C(=O)NCC(=O)N[C@@H](CCCCN)C(=O)O [GWGKFFKKFFKVGK]
